# How the values were obtained:
# Type in all cases: physicochemical
# [1] = Qualitative solubility determination of Nor-UDCA with 20 solvents; settings: thermodynamic from solid
# Procedure: (§1) The polymorph screening study was carried out in two phases. In Phase 1, the synthesized Nor-UDCA, designated Form A, was characterised by XRPD, digital imaging, thermal analysis (DSC and TGMS). The purity of the material was checked by HPLC/RI. A qualitative solubility determination with 20 solvents was carried out in order to fit the data for the selection of the crystallization solvents to be employed in the polymorph screen. Additionally, the solids recovered by evaporation of solutions used in the solubility experiments were analyzed by XRPD and digital imaging to obtain information on the potential form formation of new forms of Nor-UDCA (see Table 2). Grinding tests were conducted in order to support the definition of the experimental space for this crystallization mode. Amorphous material to be used as starting material was intentionally produced by freeze-drying from 1,4-dioxane/water (95/5%) solution and by grinding (ball-milling) for “cooling/evaporation and vapour diffusion into solids experiments”. In Phase 2, 217 experiments divided across different crystallization modes were performed. The applied crystallization modes were: • Combined cooling/evaporative crystallization experiments starting with amorphous material • Crystallization with forward anti-solvent addition • Slurry experiments at two temperatures • Vapour diffusion into solutions • Vapour diffusion onto amorphous solids • Crystallization by grinding with 24 solvents and one dry.
# [2] = Polymorph screen: relative stability of forms by XRPD re-analysis after storage; settings: for Stability by XRPD (form found on XRPD re-analysis after storage): storage at ambient conditions
# Procedure: as §1
# Upon completion of the experiments, XRPD and digital images analyses were performed on all crystallized solids.
# [3] = Particle size determination by laser diffraction; settings: dry method, Malvern
# Description: The particle size distribution can be determined as described herein in Example 3 and/or according the European Pharmacopeia (Ph. Eur.), edition 6.8. section 2.9.31, preferably with a Mastersizer 2000 by Malvern instruments. The evaluation is typically carried out by the Fraunhofer model.
# The precipitation of the free acid leads to Nor-UDCA particles of a consistent and defined size distribution. Micronization by milling in order to control the crystal size of Nor-UDCA can be avoided.
# [4] = Particle size analysis of crystals by microscopy (Reference Example)
# Procedure: Various properties of Nor-UDCA synthesized according to Schteingart and Hofmann (1988) Journal of Lipid Research Vol. 29(10), […] were investigated.
# The particle size of the crystals obtained was analyzed by microscopy. […] This particle size distribution is not suitable for the intended pharmaceutical preparation. Milling/micronization is not desired as this would result in a reduction of the polymorphic purity and/or of the thermodynamic stability of the Nor-UDCA.
smiles,measurement,setting,value
"CC(CC(=O)O)[C@H]1CCC2[C@H]3C(CC[C@@]21C)[C@@]1(C)CCC(O)C[C@H]1C[C@@H]3O (stereo partly drawn) [Nor-UDCA, 3α,7β-dihydroxy-24-nor-5β-cholan-23oic acid]",solubility,"[1]; dichloromethane, organic solvent or mixture, solvent Dichlormethane",< 13 mg/mL
same,solubility,"[1]; organic solvent or mixture, solvent 1,2-Dimethoxyethane",< 14 mg/mL
same,solubility,"[1]; organic solvent or mixture, solvent 1,2-Ethanediol",< 14 mg/mL
same,solubility,"[1]; organic solvent or mixture, solvent 1,4-Dioxane",21 mg/mL
same,solubility,"[1]; organic solvent or mixture, solvent 2,2,2-Trifluoroethanol",21 mg/mL
same,solubility,"[1]; organic solvent or mixture, solvent 2-Butanone",< 14 mg/mL
same,solubility,"[1]; organic solvent or mixture, solvent Acetone",< 14 mg/mL
same,solubility,"[1]; organic solvent or mixture, solvent Acetonitrile",< 13 mg/mL
same,solubility,"[1]; organic solvent or mixture, solvent Chloroform",< 14 mg/mL
same,solubility,"[1]; organic solvent or mixture, solvent Cyclohexane",< 14 mg/mL
same,solubility,"[1]; organic solvent or mixture, solvent Dimethylsulfoxide",207 mg/mL
same,solubility,"[1]; organic solvent or mixture, solvent Methanol",70 mg/mL
same,solubility,"[1]; organic solvent or mixture, solvent N-Methyl-2-pyrrolidone",404 mg/mL
same,solubility,"[1]; organic solvent or mixture, solvent Nitrobenzene",< 13 mg/mL
same,solubility,"[1]; organic solvent or mixture, solvent Nitromethane",< 13 mg/mL
same,solubility,"[1]; organic solvent or mixture, solvent Pentane",< 13 mg/mL
same,solubility,"[1]; organic solvent or mixture, solvent Toluene",< 12 mg/mL
same,solubility,"[1]; tert-butyl methyl ether, organic solvent or mixture, solvent Tert-butylmethylether",< 13 mg/mL
same,solubility,"[1]; tetrahydrofuran, organic solvent or mixture, solvent Tetrhydrofurane",41 mg/mL
same,solubility,[1]; solvent Water,< 12 mg/mL
same,Thermodynamic stability of the crystalline form,[2]; polymorph screening study,thermodynamically stable
same,Stability by XRPD (form found on XRPD re-analysis after storage),[2],Form A
same,"Particle size D(v, 0.5)",[3]; listed as Batch 40019721,6.4 μm
same,"Particle size D(v, 0.5)",[3]; listed as Batch 40019898,5.4 μm
same,"Particle size D(v, 0.5)",[3]; listed as Batch 40019902,6.7 μm
C[C@H](CC(=O)O)[C@H]1CC[C@H]2[C@@H]3[C@@H](O)C[C@@H]4C[C@H](O)CC[C@]4(C)[C@H]3CC[C@]12C,Median particle size (50% of the crystals this size or less),[4],13.37 μm
same,Particle size that 60% of the crystals have or less,[4],15.64 μm
same,Particle size that 95% of the particles have or less,[4],46.64 μm
same,Share of particles with a particle size of 10 μm or less,[4],Less than 30%
C[C@H](CC(=O)O)[C@H]1CC[C@H]2[C@@H]3[C@@H](O)C[C@@H]4C[C@H](O)CC[C@]4(C)[C@H]3CC[C@]12C [Form B],Time to conversion to Form A (XRPD re-analysis),[2]; stored at ambient conditions in well and experimental vial,≤ 10 days
C[C@H](CC(=O)O)[C@H]1CC[C@H]2[C@@H]3[C@@H](O)C[C@@H]4C[C@H](O)CC[C@]4(C)[C@H]3CC[C@]12C [Form C2],Stability by XRPD (form found on XRPD re-analysis after storage),[2],Form A

# Source: US9512167B2, “Optimized synthesis of pure, non-polymorphic, crystalline bile acids with defined particle size” (Dr. Falk Pharma GmbH, priority 2010, dated 2016)
